Source: patent US8372863B2, “Tetrahydro-1H-pyrrolo fused pyridones” (Merck Sharp & Dohme Corp., priority 2008, dated 2013)
Structures can show the parent of a compound that is named as a salt.

Target: PHD2 (Homo sapiens, UniProt Q9GZT9)
Assay: PHD2 / HIF-1α peptide hydroxylation assay with time resolved fluorescence readout (PHD2 binding activity)
Type: biochemical
Conditions: FLAG-tagged full length PHD2; 0.2 μM 2-oxoglutarate, 0.5 μM HIF-1α peptide; read-out: PHD2 Activity (PHD2 binding activity expressed as IC50)
Method: After a 30 min preincubation at room temperature, the enzymatic reactions were initiated by the addition of 4 μL of substrates (final concentrations of 0.2 μM 2-oxoglutarate and 0.5 μM HIF-1α peptide biotinyl-DLDLEMLAPYIPMDDDFQL). After 2 hr at room temperature, the reactions were terminated and signals were developed by the addition of a 25 μL quench/detection mix to a final concentration of 1 mM ortho-phenanthroline, 0.1 mM EDTA, 0.5 nM anti-(His)6 LANCE reagent (Perkin-Elmer Life Sciences), 100 nM AF647-labeled streptavidin (Invitrogen), and 2 μg/ml (His)6-VHL complex (S. Tan(2001) Protein Expr. Purif 21, 224-234). The ratio of time resolved fluorescence signals at 665 and 620 nm was determined, and percent inhibition was calculated relative to an uninhibited control sample run in parallel.

Chain of PHD2 (Q9GZT9 whole entry): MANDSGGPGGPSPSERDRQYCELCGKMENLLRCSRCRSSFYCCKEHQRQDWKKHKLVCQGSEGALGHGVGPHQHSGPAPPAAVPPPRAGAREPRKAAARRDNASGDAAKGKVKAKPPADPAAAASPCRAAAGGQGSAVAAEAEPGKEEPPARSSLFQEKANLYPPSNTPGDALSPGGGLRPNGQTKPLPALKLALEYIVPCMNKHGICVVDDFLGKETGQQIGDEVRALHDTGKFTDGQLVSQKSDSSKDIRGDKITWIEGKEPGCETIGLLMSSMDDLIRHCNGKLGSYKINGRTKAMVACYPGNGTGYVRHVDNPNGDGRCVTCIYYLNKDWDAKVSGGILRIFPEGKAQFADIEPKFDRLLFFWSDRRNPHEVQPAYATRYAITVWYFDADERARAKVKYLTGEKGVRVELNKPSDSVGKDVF

| IC50 | SMILES |
| --- | --- |
| < 0.01 µM | O=C(O)CNC(=O)c1c(O)c2c(n(Cc3cccc(-c4ccc(Cl)cc4)c3)c1=O)CN(C(=O)c1cscn1)C2 [Example 45, N-{[1-[(4′-chlorobiphenyl-3-yl)methyl]-4-hydroxy-2-oxo-6-(1,3-thiazol-4-ylcarbonyl)-2,5,6,7-tetrahydro-1H-pyrrolo[3,4-b]pyridin-3-yl]carbonyl}glycine] |
| < 0.01 µM | O=C(O)CNC(=O)c1c(O)c2c(n(Cc3cccc(-c4cncnc4)c3)c1=O)CN(C(=O)c1cscn1)C2 [Example 46, N-{[4-hydroxy-2-oxo-1-(3-pyrimidin-5-ylbenzyl)-6-(1,3-thiazol-4-ylcarbonyl)-2,5,6,7-tetrahydro-1H-pyrrolo[3,4-b]pyridin-3-yl]carbonyl}glycine] |
| < 0.01 µM | O=C(O)CNC(=O)c1c(O)c2c(n(Cc3cccc(-c4ccccc4Cl)c3)c1=O)CN(C(=O)c1cscn1)C2 [Example 47, N-{[1-[(2′-chlorobiphenyl-3-yl)methyl]-4-hydroxy-2-oxo-6-(1,3-thiazol-4-ylcarbonyl)-2,5,6,7-tetrahydro-1H-pyrrolo[3,4-b]pyridin-3-yl]carbonyl}glycine] |
| < 0.01 µM | C=CCCC(=O)N1Cc2c(O)c(C(=O)NCC(=O)O)c(=O)n(Cc3ccc(-c4ccccc4)cc3)c2C1C (centres unmarked) [Example 48, N-{[1-(biphenyl-4-ylmethyl)-4-hydroxy-7-methyl-2-oxo-6-pent-4-enoyl-2,5,6,7-tetrahydro-1H-pyrrolo[3,4-b]pyridin-3-yl]carbonyl}glycine] |
| < 0.01 µM | O=C(O)CNC(=O)c1c(O)c2c(n(Cc3ccccc3-c3ccccc3)c1=O)CN(C(=O)c1cscn1)C2 [Example 49, N-{[1-(biphenyl-2-ylmethyl)-4-hydroxy-2-oxo-6-(1,3-thiazol-4-ylcarbonyl)-2,5,6,7-tetrahydro-1H-pyrrolo[3,4-b]pyridin-3-yl]carbonyl}glycine] |

More lines, now with the values behind:

| SMILES | IC50 |
| --- | --- |
| O=C(O)CNC(=O)c1c(O)c2c(n(Cc3ccc(C(F)(F)F)cc3)c1=O)CN(Cc1ccc(Cl)cc1)C2 [Example 39, N-({6-(4-chlorobenzyl)-4-hydroxy-2-oxo-1-[4-(trifluoromethyl)benzyl]-2,5,6,7-tetrahydro-1H-pyrrolo[3,4-b]pyridin-6-ium-3-yl}carbonyl)glycine trifluoroacetate] | < 0.01 µM |
| O=C(O)CNC(=O)c1c(O)c2c(n(Cc3ccc(C(F)(F)F)cc3)c1=O)CN(Cc1cccc(Cl)c1)C2 [Example 40, N-({6-(3-chlorobenzyl)-4-hydroxy-2-oxo-1-[4-(trifluoromethyl)benzyl]-2,5,6,7-tetrahydro-1H-pyrrolo[3,4-b]pyridin-6-ium-3-yl}carbonyl)glycine chloride] | 0.01 to 0.1 µM |
| CCN1Cc2c(O)c(C(=O)NCC(=O)O)c(=O)n(Cc3ccc(C(F)(F)F)cc3)c2C1 [Example 41, N-({6-ethyl-4-hydroxy-2-oxo-1-[4-(trifluoromethyl)benzyl]-2,5,6,7-tetrahydro-1H-pyrrolo[3,4-b]pyridin-6-ium-3-yl}carbonyl)glycine trifluoroacetate] | 0.01 to 0.1 µM |
| N#Cc1cccnc1N1Cc2c(O)c(C(=O)NCC(=O)O)c(=O)n(Cc3ccc(C(F)(F)F)cc3)c2C1 [Example 42, N-({6-(3-cyanopyridinium-2-yl)-4-hydroxy-2-oxo-1-[4-(trifluoromethyl)benzyl]-2,5,6,7-tetrahydro-1H-pyrrolo[3,4-b]pyridin-3-yl}carbonyl)glycine trifluoroacetate] | < 0.01 µM |
| C=CCCC(=O)N1Cc2c(O)c(C(=O)NCC(=O)O)c(=O)n(Cc3cccc(-c4ccccc4)c3)c2C1 [Example 43, N-{[1-(biphenyl-3-ylmethyl)-4-hydroxy-2-oxo-6-pent-4-enoyl-2,5,6,7-tetrahydro-1H-pyrrolo[3,4-b]pyridin-3-yl]carbonyl}glycine] | < 0.01 µM |
| O=C(O)CNC(=O)c1c(O)c2c(n(Cc3cccc(-c4ccccc4)c3)c1=O)CN(C(=O)c1cscn1)C2 [Example 44, N-{[1-(biphenyl-3-ylmethyl)-4-hydroxy-2-oxo-6-(1,3-thiazol-4-ylcarbonyl)-2,5,6,7-tetrahydro-1H-pyrrolo[3,4-b]pyridin-3-yl]carbonyl}glycine] | < 0.01 µM |
